The text below walks through data of patent US9441023B2, “Peptide YY analogs” (GlaxoSmithKline Intellectual Property Development Limited, priority 2013, dated 2016).

Where no end group is shown, it is not given here.

This assay can be described thus: cumulative food intake, lean mice (Model A), BioDaQ system. It counts as in vivo. The conditions noted are these: lean male C57BL/6 mice, 1 mg/kg s.c., relative to vehicle, negative = reduction. The procedure: Cumulative food intake after 6 h was determined for the PYY analogs in either lean (Model A) or diet-induced obese (DIO) (Model B) C57BL/6 mice in a BioDaQ system for continuous monitoring of food intake (Research Diets Inc., New Brunswick, N.J.). […] Mice were placed singly into the BioDaQ cages and acclimatized for a minimum of 6 days and were allowed ad libitum access to food and water. Approximately 1 hour prior to lights-out, animals were dosed subcutaneously with either vehicle (20 mM Acetate buffer, pH 4.9 or 20% DMSO in water) or analogs dissolved in vehicle (1 mg/kg) (8 animals per group). Once all animals have been dosed, feeder gates were opened providing ad-libitum access to food. Continuous food intake was monitored and collected for 15 hours. […] P-values <0.05 were considered to indicate a significant difference between treatment groups.

Setting [1] is: Table 1, cumulative food intake after 6 h.

Consider `CC(C)C[C@H](NC(=O)[C@H](CO)NC(=O)[C@H](C)NC(=O)[C@H](Cc1ccc(O)cc1)NC(=O)[C@H](Cc1ccc(O)cc1)NC(=O)[C@H](CCCNC(=N)N)NC(=O)[C@H](CC(N)=O)NC(=O)[C@H](Cc1c[nH]c2ccccc12)NC(=O)[C@H](CCC(=O)O)NC(=O)[C@H](CCC(=O)O)NC(=O)[C@@H]1CCCN1C(=O)[C@H](CO)NC(=O)[C@H](C)NC(=O)[C@H](CC(=O)O)NC(=O)[C@H](CCCCN)NC(=O)CNC(=O)[C@@H]1CCCN1C(=O)[C@H](C)NC(=O)[C@H](CCC(=O)O)NC(=O)[C@@H]1CCCN1C(=O)[C@H](CCCCN)NC(=O)[C@@H]1CCCN1)C(=O)N[C@@H](CCCNC(=N)N)C(=O)N[C@@H](CCCCN)C(=O)N[C@@H](Cc1ccc(O)cc1)C(=O)N[C@@H](CC(C)C)C(=O)N[C@@H](CC(N)=O)C(=O)N[C@@H](Cc1c[nH]c2ccccc12)C(=O)N[C@@H](CC(C)C)C(=O)N[C@H](C(=O)N[C@@H](CCCNC(=N)N)C(=O)N[C@@H](CCC(N)=O)C(=O)N[C@@H](CCCNC(=N)N)C(=O)N[C@@H](Cc1ccc(O)cc1)C(N)=O)[C@@H](C)O` [Example 6], for which the “% reduction in food intake, model A” value under setting [1] is −88%.

Turning to “H-PQPESPEGNASPEDWACYHAAVRHYVNLITRQRY-NH2 [Peptide 18]”, for the setting “Table 2, 6 h time point”, the “% reduction in food intake, model A” value is listed as −17%.

As for “PKPEAPLSKQLEEEAVRYYASLRHYLNLVTRQRY-NH2 [Peptide 21]”, the “% reduction in food intake, model A” value (Table 2, 6 h time point) is listed as −2%.

Consider “H-PKPEAPGEDASPKEWNRYYASLRKYLNWVTRQRY-NH2 [Peptide 3]”, for which the “% reduction in food intake, model A” value (Table 2, 6 h time point) is −30%.

As for `CC(C)C[C@H](NC(=O)[C@H](CC(=O)O)NC(=O)[C@H](C)NC(=O)[C@H](Cc1ccc(O)cc1)NC(=O)[C@H](Cc1ccc(O)cc1)NC(=O)[C@H](CCCNC(=N)N)NC(=O)[C@H](CC(N)=O)NC(=O)[C@H](Cc1c[nH]c2ccccc12)NC(=O)[C@H](CCC(=O)O)NC(=O)[C@H](CCC(=O)O)NC(=O)[C@@H]1CCCN1C(=O)[C@H](CO)NC(=O)[C@H](C)NC(=O)[C@H](CC(=O)O)NC(=O)[C@H](CCCCN)NC(=O)CNC(=O)[C@@H]1CCCN1C(=O)[C@H](C)NC(=O)[C@H](CCC(=O)O)NC(=O)[C@@H]1CCCN1C(=O)[C@H](CCCCN)NC(=O)[C@@H]1CCCN1)C(=O)N[C@@H](CCCNC(=N)N)C(=O)N[C@@H](CCCCN)C(=O)N[C@@H](Cc1ccc(O)cc1)C(=O)N[C@@H](CC(C)C)C(=O)N[C@@H](CC(N)=O)C(=O)N[C@@H](Cc1c[nH]c2ccccc12)C(=O)N[C@H](C(=O)N[C@H](C(=O)N[C@@H](CCCNC(=N)N)C(=O)N[C@@H](CCC(N)=O)C(=O)N[C@@H](CCCNC(=N)N)C(=O)N[C@@H](Cc1ccc(O)cc1)C(N)=O)[C@@H](C)O)C(C)C` [Example 8], the “% reduction in food intake, model A” value under setting [1] is −74%.

Turning to “H-IKPEAPLSKQLEEEAVRYYASLRHYLNLVTRQRY-NH2 [Peptide 2]”, where the note is “Table 2, 6 h time point”, the “% reduction in food intake, model A” value is on record as −12%.

Consider `CC(C)C[C@H](NC(=O)[C@H](CO)NC(=O)[C@H](C)NC(=O)[C@H](Cc1ccc(O)cc1)NC(=O)[C@H](Cc1ccc(O)cc1)NC(=O)[C@H](CCCNC(=N)N)NC(=O)[C@H](CC(N)=O)NC(=O)[C@H](Cc1c[nH]c2ccccc12)NC(=O)[C@H](CCC(=O)O)NC(=O)[C@H](CCC(=O)O)NC(=O)[C@@H]1CCCN1C(=O)[C@H](CO)NC(=O)[C@H](C)NC(=O)[C@H](CC(=O)O)NC(=O)[C@H](CCCCN)NC(=O)CNC(=O)[C@@H]1CCCN1C(=O)[C@H](C)NC(=O)[C@H](CCC(=O)O)NC(=O)[C@@H]1CCCN1C(=O)[C@H](CCCCN)NC(=O)[C@@H]1CCCN1)C(=O)N[C@@H](CCCNC(=N)N)C(=O)N[C@@H](CCCCN)C(=O)N[C@@H](Cc1ccc(O)cc1)C(=O)N[C@@H](CC(C)C)C(=O)N[C@@H](CC(N)=O)C(=O)N[C@@H](Cc1c[nH]c2ccccc12)C(=O)N[C@H](C(=O)N[C@H](C(=O)N[C@@H](CCCNC(=N)N)C(=O)N[C@@H](CCC(N)=O)C(=O)N[C@@H](CCCNC(=N)N)C(=O)N[C@@H](Cc1ccc(O)cc1)C(N)=O)[C@@H](C)O)C(C)C` [Example 10], for which the “% reduction in food intake, model A” value under setting [1] was −88%.

“H-PKPEAPGCDASPEEWNRYYASLRKYLNWVTRQHY-NH2 [Peptide 14]”: the “% reduction in food intake, model A” value (Table 2, 6 h time point) is given as 24%.

Consider `CC[C@H](C)[C@H](N)C(=O)N[C@@H](CCCCN)C(=O)N1CCC[C@H]1C(=O)N1CCC[C@H]1C(=O)N[C@@H](Cc1ccc(O)cc1)C(=O)N1CCC[C@H]1C(=O)NCC(=O)N[C@@H](CS)C(=O)N[C@@H](CC(=O)O)C(=O)N[C@@H](C)C(=O)N[C@@H](CO)C(=O)N1CCC[C@H]1C(=O)N[C@@H](CCC(=O)O)C(=O)N[C@@H](CCC(=O)O)C(=O)N[C@@H](CCC(N)=O)C(=O)N[C@@H](CC(N)=O)C(=O)N[C@@H](CCCCN)C(=O)N[C@@H](Cc1ccc(O)cc1)C(=O)N[C@@H](Cc1ccc(O)cc1)C(=O)N[C@@H](C)C(=O)N[C@@H](CO)C(=O)N[C@@H](CC(C)C)C(=O)N[C@@H](CCCNC(=N)N)C(=O)N[C@@H](C)C(=O)N[C@@H](Cc1ccc(O)cc1)C(=O)N[C@@H](Cc1c[nH]c2ccccc12)C(=O)N[C@@H](CC(N)=O)C(=O)N[C@@H](CC(C)C)C(=O)N[C@H](C(=O)N[C@H](C(=O)N[C@@H](CCCNC(=N)N)C(=O)N[C@@H](CCC(N)=O)C(=O)N[C@@H](CCCNC(=N)N)C(=O)N[C@@H](Cc1ccc(O)cc1)C(N)=O)[C@@H](C)O)C(C)C` [Peptide 8], for which the “% reduction in food intake, model A” value (Table 2, 6 h time point) was −19%.

In the case of `CC(C)C[C@H](NC(=O)[C@H](CO)NC(=O)[C@H](C)NC(=O)[C@H](Cc1ccc(O)cc1)NC(=O)[C@H](Cc1ccc(O)cc1)NC(=O)[C@H](CCCNC(=N)N)NC(=O)[C@H](CC(N)=O)NC(=O)[C@H](CC(C)C)NC(=O)[C@H](CCC(=O)O)NC(=O)[C@H](CCC(=O)O)NC(=O)[C@@H]1CCCN1C(=O)[C@H](CO)NC(=O)[C@H](C)NC(=O)[C@H](CC(=O)O)NC(=O)[C@H](CCCCN)NC(=O)CNC(=O)[C@@H]1CCCN1C(=O)[C@H](C)NC(=O)[C@H](CCC(=O)O)NC(=O)[C@@H]1CCCN1C(=O)[C@H](CCCCN)NC(=O)[C@@H]1CCCN1)C(=O)N[C@@H](CCCNC(=N)N)C(=O)N[C@@H](CCCCN)C(=O)N[C@@H](Cc1ccc(O)cc1)C(=O)N[C@@H](CC(C)C)C(=O)N[C@@H](CC(N)=O)C(=O)N[C@@H](Cc1c[nH]c2ccccc12)C(=O)N[C@H](C(=O)N[C@H](C(=O)N[C@@H](CCCNC(=N)N)C(=O)N[C@@H](CCC(N)=O)C(=O)N[C@@H](CCCNC(=N)N)C(=O)N[C@@H](Cc1ccc(O)cc1)C(N)=O)[C@@H](C)O)C(C)C` [Example 31], the “% reduction in food intake, model A” value under setting [1] is recorded as −59%.

As to “PKPVAPGCDASPAELNRQYSDLRNYWNLVTRQRY-NH2 [Peptide 15]”, the “% reduction in food intake, model A” value (Table 2, 6 h time point) was −17%.

“H-PKPEAPGCDASPEEWNRYYASLRKYLNWVTRQNY-NH2 [Peptide 1]”: the “% reduction in food intake, model A” value (Table 2, 6 h time point) amounted to 5%.
